The subject of one assay is C. elegans CL4176. Kind of assay: Paralysis assay in C. elegans CL4176. Format: in vivo. The note with it: CL4176 worms, 10 μM, vs non-treated controls. The protocol: For paralysis assays, synchronized eggs of CL4176 were kept at 16° C. for 48 h, and the worms were transferred onto NGM plates. […] Counting was performed at 2 h intervals, typically after 14 h, at 23° C., and until the last worm became paralyzed. […] Each C. elegans experiment was conducted with at least 100 worms.

For assay [1], the system named is FFAR2 signaling. Kind of assay: Intracellular calcium assay in SK-N-SH cells. Format: cell-based, human. The note with it: 10 μM. The protocol:
FFAR2 signaling activation increases intracellular calcium (Falomir-Lockhart et al., 2019). To further determine the activation potential of selected compounds for this signaling, we plated the SK-N-SH cells (1.25×10^3 cells per well) into a dark 96-well plate for 24 h. […] Also, 0.01 M EDTA (Sigma) and […] carbachol were used as negative and additional positive controls, respectively. After 15 min, the cells were treated with […] Direct™ calcium reagent along with […] probenecid and further incubated at 37° C. for 30 min. The fluorescence was measured with excitation at 494 nm and emission at 516 nm using a microplate reader.
(Calcium assays in cells follow changes in intracellular calcium, usually with a dye or a luminescent sensor.)

In assay [2] the test system is FFAR2 signaling. The assay is described as follows: Western blot of phospho-ERK1/2 in SK-N-SH cells (FFAR2 signal activation). Format: cell-based, human. Particulars: 10 μM, 30 min. The protocol: To determine the FFAR2 signal activating property of selected compounds, SK-N-SH cells were treated with 10 μM of shortlisted compounds for 30 min at 37° C. and harvested for total protein extraction. […] After sonication, cell extracts were centrifuged at 8,000×g for 10 min at 4° C., and the supernatant was separated in a fresh tube. The total protein concentration of the supernatant was measured using a BCA protein assay kit. An equal amount of total protein (45 μg) from each sample was dissolved in loading buffer and loaded in 4% stacking gel and 10% separating SDS-PAGE gel and resolved at 100 V. Proteins were transferred on a 0.22 μm PVDF membrane and blots were developed with anti-ERK1/2, anti-phosphoERK1/2, ubiquitin (P4D1), and Aβ (6E10) primary antibodies followed by their secondary antibodies and bands were visualized using the Pierce™ Fast Western Blot Kit, ECL Substrate acquired using Syngene Pxi. Band densities were also quantified using NIH ImageJ software. β-actin was used as an internal control.
Background: A western blot detects proteins with antibodies after separation by electrophoresis.

The test system of assay [3] is proteasome. Kind of assay: Proteasome activity assay in SK-N-SH cells. Format: cell-based, human. The protocol:
(§1) The CL2006 strain, SK-N-SH cells, and brain tissues were sonicated in a lysis buffer (150 mM NaCl, 50 mM HEPES, 2 mM DTT, 20 mM NaF, 5 mM EDTA, 2.5 mM sodium pyrophosphate, 1 mM sodium orthovanadate, and 1 mM α-glycerophosphoric acid) and then centrifuged at 15,000 g at 4° C. for 15 min. Total protein was assayed using BCA kit and 20 μg protein was mixed with 140 μM suc-leu-leu-val-tyr-7-amino-4-methylcou-marin (AMC) in a proteasome activity assay buffer (150 mM NaCl, 50 mM HEPES [pH 7.4], 5 mM ATP, and 5 mM EDTA), and then the fluorescence (excitation 380 nm and emission 460 nm) was measured every 10 min over 3 h using a microplate reader. The assay was performed with and without the proteasome inhibitor MG132 (10 μM).

The subject of assay [4] is C. elegans CL2355 and CL2122. The assay is described as follows: Chemotaxis activity in C. elegans. Format: in vivo. The note with it: 10 μg/ml. The protocol:
Then the worms were washed twice with S-Basal media and transferred to an NGM plate without E. coli OP50. These plates were divided into four equal sectors, with 1 μl of 0.1% benzaldehyde as an odorant and 1 μl of 1 M sodium azide as an anesthetic to arrest the worms upon reaching the quadrant were added to the original spot. On the opposite side of the attractant, a 1 μl drop of sodium azide and 1 μl of control odorant (100% ethanol) were added onto the NGM agar plate. Around 40-45 worms were placed in the center of each plate, incubated at room temperature for 1 h, and transferred to 4° C. overnight. The chemotaxis index (CI) was scored using the following formula: (number of worms at the attractant location […])/total number of worms on the plate ([…] et al., 2013).

The subject of another assay is C. elegans. The assay is described as follows: Lifespan assay in C. elegans. In kind it is in vivo. The note with it: 10 μM. The protocol:
C. elegans was used as a model for determining the impact of selected compounds on aging and AD-like phenotypes. The wild-type (N2) and CL2122 (dvls15 [9pPD30.38) unc-54(vector)+(pCL26)mtl-2::GFP]) were propagated at 20° C. AD transgenic worms model CL2006 (dvls [pCL12(unc-54/human abeta peptide 1-42 minigene)+pRF4), CL4176 (dvls27[myo-3p::A-Beta (1-42)::let-851 3tUTR)+rol-6 (su1006] and CL2355 (dvls 50 [pCL45 9snb-1::Abeta 1-42::3t UTR 9 log)+mtl-2::GFP]) were maintained at 16° C. All strains were cultured on solid nematode growth medium (NGM) consisting of 3 g/L NaCl, 2.5 g/L peptone, 5 mg/L cholesterol, 1 mM CaCl2), 1 mM MgSO4, 25 mM KH2PO4, and 17 g/L agar and seeded with OP50 (Escherichia coli strain) as a food supply. The worms were allowed to grow up to the adult stage, and egg carrying worms were used to isolate age-synchronized eggs using the bleaching method (Porta-de-la-Riva et al., 2012). […] (N2 and CL2122) or 16° C. (CL2006, CL4176, and CL2355). All of the strains used were acquired from the University of Minnesota-Caenorhabditis Genetics Center, which is funded by the NIH Office of Research Infrastructure Programs (P40 OD010440).
To determine the impact of selected compounds on age related decline in brain health, the lifespan of the worms was first measured. The L1 worms were cultured in 96-well plates on S-complete media containing E. coli OP50 and antibiotics (about 10-15 animals per well). […] The 0.6 mM Fluorodeoxyuridine (FUDR; 30 μl) was added to each well after 3 days and animals were monitored every other day for viability. The CL4176 and CL2006 worms were grown at 16° C. and N2 worms were grown at 20° C.

Assay [5] concerns proteasome. The assay is described as follows: Proteasome activity assay in brain of APP/PS1 mice. In kind it is in vivo. The note with it: 80 mg/kg daily oral gavage, 3 months. The protocol: Brains were collected and immediately homogenized in proteasome lysis buffer and proteasome activity was measured as described below. All the animal procedures and experiments were approved by the institutional animal care and use committee (IACUC) of the Wake Forest School of Medicine and the University of South Florida.
as §1

SMILES strings stand for the structures. Entries after “also recorded” stand apart in the source; their conditions may differ.

On to `CC12CCC(C1)C(C)(C)C2O` (stereo not shown) [Fenchol], for which the paralytic attacks entry with C. elegans CL4176 is “decreased”. In addition, in the assay with FFAR2 signaling [1], the “increase in intracellular calcium levels” value was “highest increase”. The “descending order of phospho-ERK1/2 levels” value in the assay on FFAR2 signaling [2] is given as “Fenchol>Octopamine>Carvamenthenol>Camphene>Pentanone>Synephrine>Leucinamide>Carene>α-Terpineol>Breneol>L-Fenchone>D-Fenchone>Norpseudoephedrine HCl”. For the same compound, the “levels of phospho-ERK1/2 proteins” value with FFAR2 signaling [2] (vs rest of selected compounds) is “highest in Fenchol and comparable to acetate”. Moreover, the proteasomal activity entry in the assay on proteasome [3], with proteasome [5] (APP/PS1 mice cortex) and in the assay on proteasome [5] (APP/PS1 mice hippocampus) was “significantly increased” in each case. For the same compound, in the assay on proteasome [3] (Fenchol plus Aβ), the “proteasome activity in cells also treated with Aβ” value is on record as “higher”. The “memory behavior / chemotaxis index” value in assay [4] (CL2355 worms overexpressing human Aβ) is listed as “significantly higher; also recorded: preserved”. Besides, in assay [4] (control CL2122 strain), the chemotaxis index entry is “normal effects”. The survival/lifespan entry in the assay with C. elegans (CL2006 worms overexpressing human Aβ) and in the assay on C. elegans (CL4176 worms overexpressing human Aβ) was “significantly increased” throughout. For the same compound, the lifespan result in the assay with C. elegans (wild-type N2 worms) is “no significant impacts”.
